Measured values reported in patent US10934310B2, “Inhibitors of Bruton's tyrosine kinase and method of their use” (JANSSEN PHARMACEUTICA NV, priority 2015, dated 2021).

Biological target: unphosphorylated-BTK kinase domain (UP-BTK), GST-tagged human BTK (389-659aa) (Homo sapiens (Human), UniProt Q06187)
Experiment: BTK Kinase Lanthascreen Binding Assay
Settings: for BTK_I_binding pIC50: Lanthascreen binding, 60 minutes incubation, pIC50 = negative log of the IC50 in molar; for IC50: read-out: BTK_I_binding pIC50 (converted)
Description: BTK Kinase Lanthascreen Binding Assay:
A BTK kinase lanthascreen binding assay monitors compound binding to unphosphorylated-BTK kinase domain (UP-BTK), by competing with a fluorescent labeled tracer. […] Data were analyzed using Xlfit™ version 5.3 from ID Business Solutions (Guildford), Microsoft Excel add-in. pIC50 refers to the negative log of the IC50 in molar.

unphosphorylated-BTK kinase domain (UP-BTK), GST-tagged human BTK (389-659aa), sequence (Q06187 389-659): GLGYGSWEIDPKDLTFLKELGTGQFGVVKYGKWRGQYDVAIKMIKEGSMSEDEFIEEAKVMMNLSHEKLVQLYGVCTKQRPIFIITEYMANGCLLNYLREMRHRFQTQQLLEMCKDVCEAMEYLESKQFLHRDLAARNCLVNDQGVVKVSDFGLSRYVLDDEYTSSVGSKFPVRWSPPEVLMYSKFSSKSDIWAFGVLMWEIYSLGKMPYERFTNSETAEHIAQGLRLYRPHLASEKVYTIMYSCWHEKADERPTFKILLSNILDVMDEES

**Q.** For `C=CC(=O)N[C@@H]1CCN(C(=O)c2sc3nccc4c3c2NC(=O)N4c2ccc(Oc3ccccc3)cc2C)C1` [Example 434, (R)—N-(1-(5-(2-Methyl-4-phenoxyphenyl)-4-oxo-4,5-dihydro-3H-1-thia-3,5,8-triazaacenaphthylene-2-carbonyl)pyrrolidin-3-yl)acrylamide], which “BTK_I_binding pIC50” value is on record?
**A.** Its value is 6.29.

**Q.** With `Cc1cc(Oc2ccccc2)ccc1N1C(=O)Nc2c(C(=O)N3CC[C@H](NC(=O)/C(C#N)=C/C4CC4)C3)sc3nccc1c23` [Example 435, (S,E)-2-Cyano-3-cyclopropyl-N-(1-(5-(2-methyl-4-phenoxyphenyl)-4-oxo-4,5-dihydro-3H-1-thia-3,5,8-triazaacenaphthylene-2-carbonyl)pyrrolidin-3-yl)acrylamide] as the compound, how does the “BTK_I_binding pIC50” value read?
**A.** Its value is 6.15.

**Q.** `Cc1cc(Oc2ccccc2)ccc1N1C(=O)Nc2c(C(=O)N3CC[C@@H](NC(=O)/C(C#N)=C/C4CC4)C3)sc3nccc1c23` [Example 436, (R,E)-2-Cyano-3-cyclopropyl-N-(1-(5-(2-methyl-4-phenoxyphenyl)-4-oxo-4,5-dihydro-3H-1-thia-3,5,8-triazaacenaphthylene-2-carbonyl)pyrrolidin-3-yl)acrylamide] was tested. Which “BTK_I_binding pIC50” value did it give?
**A.** The value was 6.09.

**Q.** How did the “BTK_I_binding pIC50” value turn out when `C=CC(=O)N[C@H]1CCC[C@H]1NC(=O)c1sc2nccc3c2c1NC(=O)N3c1ccc(Oc2ccccn2)cc1` [Example 437, N-((1R,2S)-2-Acrylamidocyclopentyl)-4-oxo-5-(4-(pyridin-2-yloxy)phenyl)-4,5-dihydro-3H-1-thia-3,5,8-triazaacenaphthylene-2-carboxamide] was run?
**A.** Its value is 8.38.

**Q.** Which “BTK_I_binding pIC50” value does the source give for `C=CC(=O)N[C@H]1CCC[C@H]1NC(=O)c1sc2nccc3c2c1NC(=O)N3c1cccc(C(C)C)c1` [Example 438, N-((1R,2S)-2-Acrylamidocyclopentyl)-5-(3-isopropylphenyl)-4-oxo-4,5-dihydro-3H-1-thia-3,5,8-triazaacenaphthylene-2-carboxamide] here?
**A.** The value was 8.02.

**Q.** `C=CC(=O)N[C@H]1CCCC[C@H]1NC(=O)c1sc2nccc3c2c1NC(=O)N3c1ccc(Oc2ccccn2)cc1` [Example 442, N-((1R,2S)-2-Acrylamidocyclohexyl)-4-oxo-5-(4-(pyridin-2-yloxy)phenyl)-4,5-dihydro-3H-1-thia-3,5,8-triazaacenaphthylene-2-carboxamide] was tested. Which “BTK_I_binding pIC50” value did it give?
**A.** Its value is 6.84.

**Q.** Which “BTK_I_binding pIC50” value does the source give for `Cc1cc(OC(C)C)ccc1N1C(=O)Nc2c(C(=O)N[C@@H]3CCC[C@@H]3N)sc3nccc1c23` [Example 453, N-((1R,2S)-2-Aminocyclopentyl)-5-(4-isopropoxy-2-methylphenyl)-4-oxo-4,5-dihydro-3H-1-thia-3,5,8-triazaacenaphthylene-2-carboxamide] here?
**A.** Its value is 6.32.

**Q.** How did the “BTK_I_binding pIC50” value turn out when `CC(=O)N[C@@H]1CC[C@H](NC(=O)c2sc3nccc4c3c2NC(=O)N4c2ccc(OC(C)C)cc2C)C1` [Example 454, N-((1S,3R)-3-Acetamidocyclopentyl)-5-(4-isopropoxy-2-methylphenyl)-4-oxo-4,5-dihydro-3H-1-thia-3,5,8-triazaacenaphthylene-2-carboxamide] was run?
**A.** The value was 6.21.

**Q.** Which IC50 does the source give for `CC(C)c1cccc(N2C(=O)Nc3c(C(=O)N[C@@H]4CCC[C@@H]4N)sc4nccc2c34)c1` [Example 455, N-((1R,2S)-2-Aminocyclopentyl)-5-(3-isopropylphenyl)-4-oxo-4,5-dihydro-3H-1-thia-3,5,8-triazaacenaphthylene-2-carboxamide] here?
**A.** The IC50 was greater than 1 µM.

**Q.** For `Cc1cc(OC(C)C)ccc1N1C(=O)Nc2c(C(=O)N[C@@H]3CCC[C@H]3O)sc3nccc1c23` [Example 456, N-((1R,2R)-2-Hydroxycyclopentyl)-5-(4-isopropoxy-2-methylphenyl)-4-oxo-4,5-dihydro-3H-1-thia-3,5,8-triazaacenaphthylene-2-carboxamide], which IC50 is on record?
**A.** Its IC50 is greater than 1 µM.

**Q.** For `N[C@@H]1CCCC[C@@H]1NC(=O)c1sc2nccc3c2c1NC(=O)N3c1ccc(Oc2ccccc2)cc1` [Example 457, N-((1S,2R)-2-Aminocyclohexyl)-4-oxo-5-(4-phenoxyphenyl)-4,5-dihydro-3H-1-thia-3,5,8-triazaacenaphthylene-2-carboxamide], which “BTK_I_binding pIC50” value is on record?
**A.** The value was 5.81.

**Q.** For `C=CC(=O)N[C@H]1CCC[C@@H]1NC(=O)c1sc2nccc3c2c1NC(=O)N3c1ccc(Oc2ccccc2)cc1C` [Example 458, N-((1S,2S)-2-Acrylamidocyclopentyl)-5-(2-methyl-4-phenoxyphenyl)-4-oxo-4,5-dihydro-3H-1-thia-3,5,8-triazaacenaphthylene-2-carboxamide], which “BTK_I_binding pIC50” value is on record?
**A.** Its value is 7.53.

**Q.** How did the “BTK_I_binding pIC50” value turn out when `C=CC(=O)N[C@@H]1CCC[C@@H]1NC(=O)c1sc2nccc3c2c1NC(=O)N3c1ccc(Oc2ccccc2)cc1C` [Example 459, N-((1S,2R)-2-Acrylamidocyclopentyl)-5-(2-methyl-4-phenoxyphenyl)-4-oxo-4,5-dihydro-3H-1-thia-3,5,8-triazaacenaphthylene-2-carboxamide] was run?
**A.** The value was 7.13.

**Q.** How did the “BTK_I_binding pIC50” value turn out when `Cc1cc(Oc2cccc(COc3ccccc3C#N)c2)ccc1N1C(=O)Nc2c(C(=O)NC3CCCCC3)sc3nccc1c23` [Example 460, 5-(4-(3-((2-Cyanophenoxy)methyl)phenoxy)-2-methylphenyl)-N-cyclohexyl-4-oxo-4,5-dihydro-3H-1-thia-3,5,8-triazaacenaphthylene-2-carboxamide] was run?
**A.** Its value is 6.78.

**Q.** Which “BTK_I_binding pIC50” value does the source give for `Cc1cc(Oc2cccc(COc3ccccc3C#N)c2)ccc1N1C(=O)Nc2c(NC(=O)C3CC3)sc3nccc1c23` [Example 461, N-(5-(4-(3-((2-Cyanophenoxy)methyl)phenoxy)-2-methylphenyl)-4-oxo-4,5-dihydro-3H-1-thia-3,5,8-triazaacenaphthylen-2-yl)cyclopropanecarboxamide] here?
**A.** Its value is 6.46.

**Q.** `Cc1cc(Oc2ccccc2)ccc1N1C(=O)Nc2c(C(=O)NC3CCCCC3)sc3nccc1c23` [Example 462, N-Cyclohexyl-5-(2-methyl-4-phenoxyphenyl)-4-oxo-4,5-dihydro-3H-1-thia-3,5,8-triazaacenaphthylene-2-carboxamide] was tested. Which “BTK_I_binding pIC50” value did it give?
**A.** The value was 6.33.

**Q.** For `O=C(NC1CCCCC1)c1sc2nccc3c2c1NC(=O)N3c1ccc(Oc2ccccc2)cc1` [Example 463, N-Cyclohexyl-4-oxo-5-(4-phenoxyphenyl)-4,5-dihydro-3H-1-thia-3,5,8-triazaacenaphthylene-2-carboxamide], which “BTK_I_binding pIC50” value is on record?
**A.** The value was 6.22.

**Q.** With `C=CC(=O)N[C@H]1CCC[C@H]1NC(=O)c1sc2nccc3c2c1NC(=O)N3c1cnc(Oc2ncccn2)cc1C` [Example 465, N-((1R,2S)-2-Acrylamidocyclopentyl)-5-(4-methyl-6-(pyrimidin-2-yloxy)pyridin-3-yl)-4-oxo-4,5-dihydro-3H-1-thia-3,5,8-triazaacenaphthylene-2-carboxamide] as the compound, how does the “BTK_I_binding pIC50” value read?
**A.** Its value is 7.25.

**Q.** Which IC50 does the source give for `C=CC(=O)N[C@H]1CCCC[C@H]1NC(=O)c1sc2nccc3c2c1NC(=O)N3c1cnc(Oc2cccnn2)cc1C` [Example 467, N-((1R,2S)-2-Acrylamidocyclohexyl)-5-(4-methyl-6-(pyridazin-3-yloxy)pyridin-3-yl)-4-oxo-4,5-dihydro-3H-1-thia-3,5,8-triazaacenaphthylene-2-carboxamide] here?
**A.** The IC50 was greater than 1 µM.

**Q.** `C=CC(=O)N[C@H]1CCC[C@H]1NC(=O)c1sc2nccc3c2c1NC(=O)N3c1ccc(Oc2ncccn2)nc1C` [Example 468, N-((1R,2S)-2-Acrylamidocyclopentyl)-5-(2-methyl-6-(pyrimidin-2-yloxy)pyridin-3-yl)-4-oxo-4,5-dihydro-3H-1-thia-3,5,8-triazaacenaphthylene-2-carboxamide] was tested. Which “BTK_I_binding pIC50” value did it give?
**A.** Its value is 6.52.

**Q.** How did the “BTK_I_binding pIC50” value turn out when `C=CC(=O)N[C@H]1CCC[C@H]1NC(=O)c1sc2nccc3c2c1NC(=O)N3c1ccc(Oc2cccnn2)cn1` [Example 476, N-((1R,2S)-2-Acrylamidocyclopentyl)-4-oxo-5-(5-(pyridazin-3-yloxy)pyridin-2-yl)-4,5-dihydro-3H-1-thia-3,5,8-triazaacenaphthylene-2-carboxamide] was run?
**A.** Its value is 6.20.

**Q.** How did the “BTK_I_binding pIC50” value turn out when `C=CC(=O)N[C@H]1CCC[C@H]1NC(=O)c1sc2nccc3c2c1NC(=O)N3c1ccc(-n2ccccc2=O)nc1C` [Example 477, N-((1R,2S)-2-Acrylamidocyclopentyl)-5-(6′-methyl-2-oxo-2H-[1,2′-bipyridin]-5′-yl)-4-oxo-4,5-dihydro-3H-1-thia-3,5,8-triazaacenaphthylene-2-carboxamide] was run?
**A.** Its value is 6.85.

**Q.** Which IC50 does the source give for `C=CC(=O)N[C@H]1CCC[C@H]1NC(=O)c1sc2nccc3c2c1NC(=O)N3c1ccc(Oc2ccccn2)nc1C` [Example 478, N-((1R,2S)-2-Acrylamidocyclopentyl)-5-(2-methyl-6-(pyridin-2-yloxy)pyridin-3-yl)-4-oxo-4,5-dihydro-3H-1-thia-3,5,8-triazaacenaphthylene-2-carboxamide] here?
**A.** The IC50 was 0.0229 µM.

**Q.** For `C=CC(=O)N[C@H]1CCC[C@H]1NC(=O)c1sc2nccc3c2c1NC(=O)N3c1ccc(Oc2cccc(C)n2)cn1` [Example 479, N-((1R,2S)-2-Acrylamidocyclopentyl)-5-(5-((6-methylpyridin-2-yl)oxy)pyridin-2-yl)-4-oxo-4,5-dihydro-3H-1-thia-3,5,8-triazaacenaphthylene-2-carboxamide], which IC50 is on record?
**A.** The IC50 was 0.0288 µM.

**Q.** How did the “BTK_I_binding pIC50” value turn out when `C=CC(=O)N[C@H]1CCC[C@H]1NC(=O)c1sc2nccc3c2c1NC(=O)N3c1ccc(Oc2ccccn2)cn1` [Example 480, N-((1R,2S)-2-Acrylamidocyclopentyl)-4-oxo-5-(5-(pyridin-2-yloxy)pyridin-2-yl)-4,5-dihydro-3H-1-thia-3,5,8-triazaacenaphthylene-2-carboxamide] was run?
**A.** The value was 7.59.

**Q.** For `C=CC(=O)N[C@H]1CCC[C@H]1NC(=O)c1sc2nccc3c2c1NC(=O)N3c1ccc(Oc2ccc(C)nc2)cn1` [Example 481, N-((1R,2S)-2-Acrylamidocyclopentyl)-5-(5-((6-methylpyridin-3-yl)oxy)pyridin-2-yl)-4-oxo-4,5-dihydro-3H-1-thia-3,5,8-triazaacenaphthylene-2-carboxamide], which “BTK_I_binding pIC50” value is on record?
**A.** The value was 7.33.
